Test results from the NIST ThermoML archive (doi:10.1016/j.jct.2018.07.020).
Several values for one entry are separate records, joined by “and”; a condition that tells them apart may be missing. Identical values can stand only once.

What was measured:
[1] = for vapor or sublimation pressure: Transpiration method; for Normal melting temperature: DTA
[2] = Molar enthalpy of transition or fusion; conditions: Crystal; DSC
[3] = Boiling temperature at pressure P; conditions: Liquid, Distillation

c1ccc2[nH]ncc2c1 [1,2-diazaindene]
[1], Crystal
Conditions	vapor or sublimation pressure
323.3 K	0.00069 kPa
326.3 K	0.00098 kPa
330.3 K	0.00152 kPa
331.3 K	0.00161 kPa
336.3 K	0.00272 kPa
338.3 K	0.00329 kPa
341.3 K	0.00443 kPa
343.3 K	0.00515 kPa and 0.00524 kPa
345.2 K	0.00661 kPa
346.3 K	0.00723 kPa
348.3 K	0.00826 kPa
350.3 K	0.01023 kPa
353.2 K	0.01343 kPa
356.2 K	0.01763 kPa
358.2 K	0.0211 kPa
361.2 K	0.02725 kPa

Cc1cc(C)n(C)n1 [1,3,5-trimethylpyrazole]
Conditions	Molar enthalpy of transition or fusion [kcal/mol]
[2]	4.21

[1]
Conditions	vapor or sublimation pressure
282 K, Crystal	0.0479 kPa
284 K, Crystal	0.0583 kPa
287 K, Crystal	0.0816 kPa
288.7 K, Crystal	0.0998 kPa
291.7 K, Crystal	0.1348 kPa
293.8 K, Crystal	0.1707 kPa
296.7 K, Crystal	0.2266 kPa
298.7 K, Crystal	0.2751 kPa and 0.2814 kPa
301.7 K, Crystal	0.376 kPa
301.9 K, Crystal	0.3776 kPa
303 K, Crystal	0.4153 kPa
303.9 K, Crystal	0.4496 kPa
306.8 K, Crystal	0.5927 kPa
315.6 K, Liquid	0.934 kPa
320.8 K, Liquid	1.297 kPa
325.7 K, Liquid	1.793 kPa
326.4 K, Liquid	1.878 kPa
330.5 K, Liquid	2.376 kPa
331.4 K, Liquid	2.585 kPa
334.1 K, Liquid	2.995 kPa
336 K, Liquid	3.202 kPa
336.4 K, Liquid	3.436 kPa
338.9 K, Liquid	3.803 kPa
341.4 K, Liquid	4.545 kPa
343.4 K, Liquid	4.993 kPa
346.4 K, Liquid	5.866 kPa

Conditions	Normal melting temperature [°C]
[1], Crystal	39.4

c1ccc(Cn2cccn2)cc1 [1-benzylpyrazole]
[1], Liquid
Conditions	vapor or sublimation pressure
298.2 K	0.00147 kPa
310.2 K	0.0043 kPa
314.2 K	0.00615 kPa
318.2 K	0.00882 kPa
322.2 K	0.0119 kPa
326.2 K	0.0166 kPa and 0.0168 kPa
330.2 K	0.0225 kPa
334.2 K	0.0311 kPa
338.2 K	0.0421 kPa
342.2 K	0.0559 kPa
346.2 K	0.0713 kPa
350.2 K	0.0969 kPa
354.2 K	0.1228 kPa
358.2 K	0.159 kPa

Conditions	Boiling temperature at pressure P [°C]
[3], 0.6 kPa	109

CCn1cccn1 [1-ethylpyrazole]
[1], Liquid
Conditions	vapor or sublimation pressure
275.2 K	0.1828 kPa and 0.1776 kPa
279.2 K	0.2485 kPa
280.2 K	0.2616 kPa
283.2 K	0.3347 kPa
285.2 K	0.3759 kPa
287.2 K	0.4482 kPa
290.2 K	0.5448 kPa
291.2 K	0.5877 kPa
294.2 K	0.7128 kPa
295.2 K	0.7543 kPa
298.2 K	0.9478 kPa
300.2 K	1.073 kPa
302.2 K	1.237 kPa
303.2 K	1.3 kPa
305.2 K	1.539 kPa
306.2 K	1.63 kPa
311.2 K	2.194 kPa

Conditions	Boiling temperature at pressure P [°C]
[3], 7.2 kPa	60

Cn1cccn1 [1-methyl-1H-pyrazole]
[1], Liquid
Conditions	vapor or sublimation pressure [kPa]
273.4 K	0.3007
276.4 K	0.3722
277.2 K	0.3818
278.7 K	0.4304
281.6 K	0.5225
281.8 K	0.5148
283.3 K	0.5843
284.6 K	0.6386
286.5 K	0.7077
287.8 K	0.7821
288.3 K	0.8074
290.5 K	0.9287
291.4 K	0.9834
292.5 K	1.077
294.4 K	1.195
296.5 K	1.365
297.4 K	1.456
298.8 K	1.576
302.4 K	1.989
304.7 K	2.313
306.6 K	2.528
308.2 K	2.753

c1ccc(-n2cccn2)cc1 [1-phenylpyrazole]
[1], Liquid
Conditions	vapor or sublimation pressure [kPa]
294.2 K	0.00258
295.2 K	0.00284
297.2 K	0.00324
303.2 K	0.00556
309.1 K	0.00913
315 K	0.01461
320.9 K	0.02221
327 K	0.03352
332.8 K	0.05146
338.9 K	0.07723
344.9 K	0.1082
350.8 K	0.1589
354.8 K	0.2072
360.8 K	0.2918

c1cn[nH]c1 [1H-pyrazole]
[1], Crystal
Conditions	vapor or sublimation pressure [kPa]
308.4 K	0.0499
310.8 K	0.0628
313.4 K	0.08
315.8 K	0.1
318.2 K	0.1258
323.3 K	0.189
328.3 K	0.287
330.9 K	0.3495
333.3 K	0.4255
335.8 K	0.5187
338.3 K	0.6278

Cc1cc(C)[nH]n1 [3,5-dimethylpyrazole]
Conditions	Molar enthalpy of transition or fusion [kcal/mol]
[2]	3.85

[1], Crystal
Conditions	vapor or sublimation pressure [kPa]
323.3 K	0.0136
325.9 K	0.0179
326.3 K	0.019
328.3 K	0.0224
330.3 K	0.028
333.3 K	0.0361
333.5 K	0.0368
336.3 K	0.0473
338.2 K	0.0538
343.3 K	0.0846
345.7 K	0.1033
348.3 K	0.1257
350.7 K	0.1591
350.8 K	0.1585
353.2 K	0.1955
354.3 K	0.2107
356.4 K	0.2524

Conditions	Normal melting temperature [°C]
[1], Crystal	109.1

Cc1cc[nH]n1 [3-methylpyrazole]
[1], Liquid
Conditions	vapor or sublimation pressure [kPa]
306.3 K	0.0252
308.7 K	0.0308
311.2 K	0.0369
313.8 K	0.0443
316.3 K	0.0568
318.2 K	0.063
321.2 K	0.0821
323.8 K	0.0978
326.2 K	0.1165
328.8 K	0.142
333.2 K	0.1924

Cc1cn[nH]c1 [4-methylpyrazole]
[1], Liquid
Conditions	vapor or sublimation pressure [kPa]
296 K	0.0098
301 K	0.0149
305.9 K	0.0226
310.8 K	0.0339
315.8 K	0.0494
320.9 K	0.0719
325.7 K	0.099
330.6 K	0.1457
335.6 K	0.2071
340.6 K	0.2879
